In patent publication EP1857440A1, “Novel compounds, isomer thereof, or pharmaceutically acceptable salts thereof as vanilloid receptor antagonist; and pharmaceutical compositions containing the same” (Amorepacific Corporation, priority 2006, dated 2007):

What follows are molecules tested against T1, vanilloid receptor (Rattus norvegicus, UniProt O35433) (assay: 45Ca influx test (calcium uptake) in primary cultured neonatal rat DRG neurons, capsaicin-stimulated). Conditions: 10 µM test compound, capsaicin 0.5 µM.
T1 construct: DRG nerve cells from the primary culture of 2 days were equilibrated by washing 4 times; endogenous in cells; host or cells: primary culture of dorsal root ganglion (DRG) neurons from neonatal SD rats
Assay type: cell-based, SD rats
Procedure: 1) Separation of spinal dorsal root ganglia (DRG) in newborn rats and primary culture thereof
Neonatal (2-3 day old or younger than 2-3 day old) SD rats were put in ice for 5 minutes to anesthetize and disinfected with 70% ethanol. DRG of all part of spinal cord were dissected (Wood et al., 1988, J. Neurosci. 8, pp3208-3220) and collected in DME/F12 medium to which 1.2g/l sodium bicarbonate, 50mg/l gentamycin were added. The DRG were incubated sequentially at 37°C for 30 min in 200 U/ml collagenase and 2.5mg/ml trypsin, separately. The gangiia were washed twice with DME/F12 medium supplemented with 10% horse serum, triturated through a fire-polished Pasteur pipette, filtered through Nitex 80 membrane to obtain single cell suspension and the suspension was washed once more. This was subjected to centrifugation, then resuspended in cell culture medium at certain level of cell density. As the cell culture medium, DME/F12 medium supplemented with 10% horse serum was diluted with identical medium conditioned by C6 glioma cells 2 days on a confluent monolayer (1:1), and NGF (Nerve Growth Factor) was added to adjust 200ng/ml as final concentration. After the cells were grown 2 days in medium where cytosine arabinoside (Ara-C, 100 µM) was added to kill dividing nonneuronal cells, medium was changed to one without Ara-C. The resuspended cells were plated at a density of 1500-2000 neurons/well onto Terasaki plates previously coated with 10 µg/ml poly-D-ornithine.
2) ^45 Ca influx experiments
DRG nerve cells from the primary culture of 2 days were equilibrated by washing 4 times with HEPES (10mM, pH 7.4)-buffered Ca ^2+, Mg^2+-free HBSS (H-HBSS). The solution in each well was removed from the individual well. Medium containing the test compound plus capsaicin (final concentration 0.5 µM) and ^45Ca (final concentration 10 µCi/ml) in H-HBSS was added to each well and incubated at room temperature for 10 mins. Terasaki plates were washed five times with H-HBSS and dried at room temperature. To each well, 0.3% SDS (10 µl) was added to elute ^45Ca. After the addition of scintillation cocktail of into each well, the amount of ^45Ca influx into neuron was measured by counting radioactivity. […] [Table 1] Results of Calcium Influx Test

T1 sequence (O35433 whole entry): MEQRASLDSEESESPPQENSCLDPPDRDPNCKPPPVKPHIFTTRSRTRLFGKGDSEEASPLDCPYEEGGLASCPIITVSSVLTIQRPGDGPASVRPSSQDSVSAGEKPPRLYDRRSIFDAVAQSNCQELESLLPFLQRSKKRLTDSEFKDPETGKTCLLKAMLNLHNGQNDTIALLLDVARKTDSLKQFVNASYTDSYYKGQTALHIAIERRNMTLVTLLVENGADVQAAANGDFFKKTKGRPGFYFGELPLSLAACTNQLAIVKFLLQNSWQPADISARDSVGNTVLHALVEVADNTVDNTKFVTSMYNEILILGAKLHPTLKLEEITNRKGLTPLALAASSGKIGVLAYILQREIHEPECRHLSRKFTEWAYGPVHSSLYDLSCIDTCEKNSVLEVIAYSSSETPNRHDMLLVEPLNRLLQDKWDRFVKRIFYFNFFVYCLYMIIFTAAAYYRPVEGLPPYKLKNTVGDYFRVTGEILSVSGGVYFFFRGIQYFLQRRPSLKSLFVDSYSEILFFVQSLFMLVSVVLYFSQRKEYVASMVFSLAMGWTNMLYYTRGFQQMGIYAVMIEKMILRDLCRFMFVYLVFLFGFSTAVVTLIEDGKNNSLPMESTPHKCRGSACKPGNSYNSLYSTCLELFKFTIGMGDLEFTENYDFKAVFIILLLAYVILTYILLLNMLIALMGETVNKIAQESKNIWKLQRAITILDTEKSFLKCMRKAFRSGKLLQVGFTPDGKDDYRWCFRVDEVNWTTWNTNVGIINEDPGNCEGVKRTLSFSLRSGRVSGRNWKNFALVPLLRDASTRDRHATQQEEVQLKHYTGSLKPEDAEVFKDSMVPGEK

Antagonist Calcium Uptake Test (% @ 10 µM)	SMILES
52	CS(=O)(=O)Nc1ccc(CNC(=O)COc2ccccc2C2CCCCC2)cc1F [Example 63, N-(3-Fluoro-4-methanesulfonylaminobenzyl)-2-(2-cyclohexylphenoxy)acetamide]

Same assay, conditions: capsaicin 0.5 µM, 45Ca 10 µCi/ml, 10 mins at room temperature, read-out: Antagonist Calcium Uptake Test (IC50)

SMILES	IC50 [µM]
CS(=O)(=O)Nc1ccc(CNC(=O)COc2ccc3c(c2)OCO3)cc1F [Example 29, 2-(Benzo[1,3]dioxol-5-yloxy)-N-(3-fluoro-4-methanesulfonylaminobenzyl)-acetamide]	> 10
CS(=O)(=O)Nc1ccc(CNC(=O)COCc2ccc(C(F)(F)F)cc2)cc1F [Example 26, N-(3-Fluoro-4-methanesulfonylamino-benzyl)-2-(4-trifluoromethylbenzyloxy)-acetamide]	> 10
CS(=O)(=O)Nc1ccc(CNC(=O)COc2ccc(Cl)cc2Cl)cc1F [Example 22, 2-(2,4-Dichloro-phenoxy)-N-(3-fluoro-4-methanesulfonylaminobenzyl)-acetamide]	> 10
CC(C)(Oc1ccc(C(F)(F)F)cc1)C(=O)NCc1ccc(NS(C)(=O)=O)c(Cl)c1 [Example 21, N-(3-Chloro-4-methanesulfonylamino-benzyl)-2-methyl-2-(4-trifluoromethyl-phenoxy)-propionamide]	> 10
CS(=O)(=O)Nc1ccc(CNC(=O)COc2ccc(OC(F)(F)F)cc2)cc1F [Example 28, N-(3-Fluoro-4-methanesulfonylaminobenzyl)-2-(4-(trifluoromethoxy)phenoxy)acetamide]	4.3
CS(=O)(=O)Nc1ccc(CNC(=O)COc2ccc(-c3ccccc3)cc2)cc1F [Example 27, 2-(Biphenyl-4-yloxy)-N-(3-fluoro-4-methanesulfonylamino-benzyl)-acetamide]	> 10
CS(=O)(=O)Nc1ccc(CNC(=O)COc2ccc(Cl)cc2)cc1F [Example 34, 2-(4-Chloro-phenoxy)-N-(3-fluoro-4-methanesulfonylamino-benzyl)-acetamide]	8.7
Cc1cc(NS(C)(=O)=O)c(F)cc1CNC(=O)COc1ccc(C(C)(C)C)cc1 [Example 9, 2-(4-tert-Butylphenoxy)-N-(5-fluoro-4-methanesulfonylamino-2-methylbenzyl)acetamide]	0.33
CS(=O)(=O)Nc1ccc(CNC(=O)COc2ccc(Cl)c(Cl)c2)cc1F [Example 25, 2-(3,4-Dichloro-phenoxy)-N-(3-fluoro-4-methanesulfonylaminobenzyl)-acetamide]	2.3
Cc1cc(CNC(=O)COc2ccc(C(C)(C)C)cc2)cc(Cl)c1NS(C)(=O)=O [Example 8, 2-(4-tert-Butyl-phenoxy)-N-(3-chloro-4-methanesulfonylamino-5-methylbenzyl)acetamide]	0.11
C=Cc1cc(CNC(=O)COc2ccc3c(c2)OCO3)cc(F)c1NS(C)(=O)=O [Example 30, 2-(Benzo[1,3]dioxol-5-yloxy)-N-(3-fluoro-4-methanesulfonylamino-5-vinyl-benzyl)-acetamide]	3.4
Cc1cc(CNC(=O)COc2ccc(C(C)(C)C)cc2)cc(F)c1NS(C)(=O)=O [Example 10, 2-(4-tert-Butylphenoxy)-N-(3-fluoro-4-methanesulfonylamino-5-methylbenzyl) acetamide]	0.16
C=Cc1cc(CNC(=O)COc2ccc(C(C)(C)C)cc2)ccc1NS(C)(=O)=O [Example 4, 2-(4-tert-Butylphenoxy)-N-(4-methanesulfonylamino-3-vinylbenzyl)acetamide]	0.081
C[C@H](Oc1ccc(C(C)(C)C)cc1)C(=O)NCc1ccc(NS(C)(=O)=O)c(F)c1 [Example 14, (S)-2-(4-tert-Butylphenoxy)-N-(3-fluoro-4-methanesulfonylaminobenzyl)propionamide]	0.76
C[C@@H](NC(=S)COc1ccc(C(C)(C)C)cc1)c1ccc(NS(C)(=O)=O)cc1 [Example 15, (R)-2-(4-tert-Butylphenoxy)-N-[1-(4-methanesulfonylaminophenyl)ethyl]thioacetamide]	0.68
C[C@@H](NC(=O)COc1ccc(C(C)(C)C)cc1)c1ccc(NS(C)(=O)=O)cc1 [Example 11, (R)-2-(4-tert-Butylphenoxy)-N-[1-(4-methanesulfonylaminophenyl)ethyl]acetamide]	0.096
C#Cc1cc(CNC(=O)CSc2ccc(C(C)(C)C)cc2)cc(F)c1NS(C)(=O)=O [Example 20, 2-(4-tert-Butyl-phenylsulfanyl)-N-(3-ethynyl-5-fluoro-4-methanesulfonylamino-benzyl)-acetamide]	0.19
Cc1cc(OCC(=O)NCc2ccc(NS(C)(=O)=O)c(F)c2)ccc1[N+](=O)[O-] [Example 35, N-(3-Fluoro-4-methanesulfonylaminobenzyl)-2-(3-methyl-4-nitrophenoxy)acetamide]	> 10

The next lines start with the values.

IC50 [µM]	SMILES
5.6	CC(C)(C)c1ccc(OCC(=O)NCc2ccc(NS(C)(=O)=O)c(F)c2)c(C(C)(C)C)c1 [Example 55, N-(3-Fluoro-4-methanesulfonylaminobenzyl)-2-(2,4-di-tert-butylphenoxy)acetamide]
> 10	CC(=O)c1cc(C(F)(F)F)ccc1OCC(=O)NCc1ccc(NS(C)(=O)=O)c(F)c1 [Example 44, 2-(2-Acetyl-4-trifluoromethyl-phenoxy)-N-(3-fluoro-4-methanesulfonylamino-benzyl)-acetamide]
0.15	CC(C)(C)c1ccc(OCC(=O)NCc2cc(F)c(NS(C)(=O)=O)c(C#N)c2)cc1 [Example 47, 2-[4-(tert-butyl)phenoxy]-N-(3-cyano-5-fluoro-4-methanesulfonyl Amino-benzyl)acetamide]
1.8	CC(C)(C)c1cccc(OCC(=O)NCc2ccc(NS(C)(=O)=O)c(F)c2)c1 [Example 40, N-(3-Fluoro-4-methanesulfonylaminobenzyl)-2-(3-tert-butylphenoxy)acetamide]
> 10	CCCOc1ccc(OCC(=O)NCc2ccc(NS(C)(=O)=O)c(F)c2)cc1 [Example 41, N-(3-Fluoro-4-methanesulfonylaminobenzyl)-2-(4-n-propoxyphenoxy)acetamide]
> 10	CS(=O)(=O)Nc1ccc(CNC(=O)COc2ccc(C(F)(F)F)cc2N2CCOCC2)cc1F [Example 43, N-(3-Fluoro-4-methanesulfonylamino-benzyl)-2-(2-morpholin-4-yl-4-trifluoromethyl-phenoxy)-acetamide]
3	CC(C)(C)C(=O)OCc1cc(C(F)(F)F)ccc1OCC(=O)NCc1ccc(NS(C)(=O)=O)c(F)c1 [Example 58, 2,2-Dimethyl-propionic acid 2-[(3-fluoro-4-methanesulfonylaminobenzylcarbamoyl)-methoxy]-5-trifluoromethyl-benzyl ester]
5.1	CS(=O)(=O)Nc1ccc(CNC(=O)COCc2ccc(C(F)(F)F)cc2C(F)(F)F)cc1F [Example 56, N-(3-Fluoro-4-methanesulfonylaminobenzyl)-2-(2,4-bis(trifluoromethyl)benzyloxy)acetamide]
3.7	CS(=O)(=O)Nc1ccc(CNC(=O)COc2ccc(Br)cc2)cc1F [Example 45, 2-(4-Bromo-phenoxy)-N-(3-fluoro-4-methanesulfonylamino-benzyl)-acetamide]
0.18	CC(C)(C)c1ccc(OC(F)C(=O)NCc2ccc(NS(C)(=O)=O)c(F)c2)cc1 (stereo not shown) [Example 48, 2-(4-tert-Butylphenoxy)-2-fluoro-N-(3-fluoro-4-methanesulfonylaminobenzyl)acetamide]
> 10	CS(=O)(=O)Nc1ccc(CNC(=O)COc2ccccc2C(F)(F)F)cc1F [Example 51, 2-(2-trifluoromethyl-phenoxy)-N-(3-fluoro-4-methanesulfonylaminobenzyl)-acetamide]
1.2	CS(=O)(=O)Nc1ccc(CNC(=O)COc2ccc(I)cc2)cc1F [Example 36, N-(3-Fluoro-4-methanesulfonylamino-benzyl)-2-(4-iodo-phenoxy)-acetamide]
> 10	CS(=O)(=O)Nc1ccc(CNC(=O)COc2ccc(F)cc2F)cc1F [Example 37, N-(3-Fluoro-4-methanesulfonylaminobenzyl)-2-(2,4-difluorophenoxy)acetamide]
2.6	CS(=O)(=O)Nc1ccc(CNC(=O)COc2c(I)cc(C(F)(F)F)cc2I)cc1F [Example 38, 2-(2,6-Diiodo-4-trifluoromethyl-phenoxy)-N-(3-fluoro-4-methanesulfonylamino-benzyl)-acetamide]
> 10	CS(=O)(=O)Nc1ccc(CNC(=O)COc2ccc(C3CCCCC3)cc2)cc1F [Example 64, N-(3-fluoro-4-methanesulfonylamino-benzyl)-2-(4-Cyclohexylphenoxy)-acetamide]
